How the values were obtained:
[1] = system: neofollicle germs in the wound area; experiment: Neofollicle germ formation after full thickness excision (FTE) in mice, counted by confocal imaging and AP staining; assay type: in vivo, C57BL6/J female mice
Procedure: A study was conducted to assess the degree to which valproic acid could stimulate growth of new hair follicles by in mice when applied after a full thickness excision (FTE) procedure. FTE creates a zone of hair follicles that are 100% newly formed and removes noise from other clouding factors (e.g., migration of pre-existing follicles into the wound) (e.g., as described in Ito et. al., Nature, May 2007, “Wnt-dependent de novo hair follicle regeneration in adult mouse skin after wounding”, the contents of which is herein incorporated by reference in its entirety). The study was conducted with 2 arms (1) vehicle control and (2) 8.3% valproic acid; n=21 mice per arm). Valproic acid or placebo was applied twice daily for 4 days following scab detachment. The resulting data was analyzed and compared to a vehicle compound control cohort.
Day-12 C57BL6/J female mice pups (Jackson Labs) were maintained in cages and fed a high fat diet until day of surgery. […] After 1 hour, the mice were injected with ketamine (70 mg/kg)-xylazine (8 mg/kg), assigned a Study ID, and weight was recorded. […]
The degree of neofollicle germ formation was measured in the wound area, using imaging by confocal microscopy (confocal scanning laser microscope (CSLM) (VivaScope 1500, Lucid Inc., Rochester, N.Y., USA) and counting the number of early hair follicles developing underneath the surface of the skin. […]

total hair counts = conditions: topical; male patients with androgenetic alopecia; Jo et al., Journal of Dermatology 2014; cited from earlier work

## CCCC(CCC)C(=O)O [Valproic Acid, 2-propylpentanoic acid]
[1]; FTE + VPA 8.3% topical twice daily for 4 days, mice
  Number of neofollicles versus FTE + vehicle treated controls (in words): strong trend indicating increased numbers of neofollicles
[1]; FTE mice, 8.3% valproic acid in 50% ethanol/30% water/20% propylene glycol, topical 20 uL twice daily for 4 days after scab detachment, n=15, vehicle control 26.3 (n=21), one-tail P 0.066
  Mean count of neofollicles (Primary 1 + Primary 2 scoring categories): 37.1
Total hair counts
  Total hair count (in words): increase total hair counts

Reference: patent publication US20200289441A1, “METHODS FOR PROMOTING HAIR GROWTH USING VALPROIC ACID” (FOLLICA, INC., priority 2017, published 2020)
